Laboratory results reported in patent US20230278972A1, “SUBSTITUTED HALOALKYL SULFONANILIDE HERBICIDES” (FMC Corporation, priority 2020, published 2023).

Experiments:
Type in all cases: in vivo
[1] = tested on: ducksalad (Heteranthera limosa); test: Test B1 flooded paddy test, ducksalad; conditions: 250 g ai/ha, Flood, applied to paddy water, 2-leaf stage, visually evaluated after 10 to 14 days
Source text: A dash (-) response means no test result.

corn (Zea mays) [2] = test: Test A1 postemergence, corn; conditions: Postemergence
How it was run: (§1)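 Seeds were first planted into a blend of loam soil and sand and given a preemergence directed soil spray. In parallel, pots of the same soil were sown for postemergence application once plants reached 2 to 10 cm and the one- to two-leaf stage. Both used surfactant-containing non-phytotoxic solvent formulations.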

[3] = tested on: Oat, Wild (wild oat, Avena fatua); test: Test A1 preemergence, Oat, Wild
How it was run: as §1

[4] = tested on: horseweed (Erigeron canadensis); test: Test A1 postemergence, horseweed; conditions: Postemergence
How it was run: (§2)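 Pre: seeds in loam/sand blend, directed soil spray. Post: potted plants, same soil, 2–10 cm, 1–2 leaf stage. Chemicals in non-phytotoxic solvent + surfactant for both.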

[5] = tested on: wheat (Triticum aestivum); test: Test A1 preemergence, wheat
How it was run: as §1

corn (Zea mays) [6] = test: Test A1 preemergence, corn
How it was run: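 Test compounds were formulated in a non-phytotoxic solvent mixture containing a surfactant. For preemergence, seeds sown in a loam soil–sand blend received a directed soil spray. For postemergence, potted plants in the same soil, 2 to 10 cm tall at the one- to two-leaf stage, were sprayed.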

soybean (Glycine max) [7] = test: Test A1 postemergence, soybean; conditions: Postemergence
How it was run: as §2

[8] = tested on: wheat (Triticum aestivum); test: Test A1 postemergence, wheat; conditions: Postemergence
How it was run: as §2

soybean (Glycine max) [9] = test: Test A1 preemergence, soybean
How it was run: as §1

[10] = 31 g ai/ha, 0 to 100 scale (0 no effect, 100 complete control), 10 days
[11] = 31 g ai/ha, 0 to 100 scale (0 no effect, 100 complete control)
[12] = 125 g ai/ha, 0 to 100 scale, 0 no effect, 100 complete control

SMILES	Plant response rating, Ducksalad (0 to 100 scale, 0 is no effect, 100 is complete control) [1]	Plant response rating, Corn (corn (Zea mays) [2]; [10])	Plant response rating, Corn (corn (Zea mays) [2]; 125 g ai/ha, 0 to 100 scale)	Plant response rating, Oat, Wild [3, 11]	Plant response rating, Oat, Wild [3, 12]	Plant response rating, Horseweed [4, 10]	Plant response rating, Horseweed ([4]; 125 g ai/ha, 0 to 100 scale)	Plant response rating, Wheat [5, 11]	Plant response rating, Wheat [5, 12]	Plant response rating, Corn (corn (Zea mays) [6]; [11])	Plant response rating, Corn (corn (Zea mays) [6]; [12])	Plant response rating, Soybean (soybean (Glycine max) [7]; [10])	Plant response rating, Soybean (soybean (Glycine max) [7]; 125 g ai/ha, 0 to 100 scale)	Plant response rating, Wheat [8, 10]	Plant response rating, Wheat ([8]; 125 g ai/ha, 0 to 100 scale)	Plant response rating, Soybean (soybean (Glycine max) [9]; [11])	Plant response rating, Soybean (soybean (Glycine max) [9]; [12])
COC1CCCN(C(=O)c2cc(NS(=O)(=O)C(F)(F)F)c(Cl)c(F)c2C)C1 (centres unmarked) [Compound 334]	60	0	0	10	20	0	30	0	0	0	0	20	40	0	0	0	30
CCOC(=O)N(c1cc(C(=O)N2C[C@@H](C)O[C@@H](C)C2)c(C)c(C)c1C)S(=O)(=O)C(F)(F)F [Compound 332]	80	0	50	0	20	60	80	10	40	0	10	60	100	10	50	20	70
COCC1CC(c2cc(NS(=O)(=O)C(F)(F)F)c(C)cc2C)=NO1 (centres unmarked) [Compound 319]	85	10	80	60	70	10	40	80	100	40	90	20	50	70	70	20	30
Cc1c(C(=O)N2CCCCC2)cc(N(COC(=O)C(C)(C)C)S(=O)(=O)C(F)(F)F)c(C)c1C [Compound 329, [[(Trifluoromethyl)sulfonyl][2,3,4-trimethyl-5-(1-piperidinylcarbonyl)phenyl]amino]methyl 2,2-dimethylpropanoate]	60	0	0	0	0	20	90	0	0	0	0	60	60	0	0	0	0
Cc1cc(C)c(C2=NOC3COCC23)cc1NS(=O)(=O)C(F)(F)F (centres unmarked) [Compound 297]	50	0	0	0	20	50	80	20	100	0	20	30	50	10	80	0	50
Cc1c(C2=NO[C@@H]3CCC[C@H]23)cc(N(COC(=O)C(C)(C)C)S(=O)(=O)C(F)(F)F)c(C)c1C [Compound 336, [[(Trifluoromethyl)sulfonyl][2,3,4-trimethyl-5-[(3aR,6aR)-3a,5,6,6a-tetrahydro-4H-cyclopent[d]isoxazol-3-yl]phenyl]amino]methyl 2,2-dimethylpropanoate]	75	0	0	0	20	0	60	0	0	0	0	20	50	0	0	0	0
CCOC(=O)N(c1cc(C(=O)N2CCC(F)(F)CC2)c(C)cc1C)S(=O)(=O)C(F)(F)F [Compound 351]	70	0	70	10	30	100	90	10	50	0	0	30	50	0	60	20	30
